Data on three molecules can be found in patent US20050042209A1, “MUC1 extracellular domain and cancer treatment compositions and methods derived therefrom” (priority 2000, published 2005).

Series [1] has as its system ZR-75-1 breast carcinoma cells. Nature of the series: Mitochondrial transmembrane potential in ZR-75-1 cells. It is filed as cell-based, human. On the procedure: Analysis of mitochondrial transmembrane potential: Cells were incubated with 0.5 nM 3,3-dihexyloxocarbocyanine iodide (DiOC6[3]; Molecular Probes) for 30 min and analyzed by flow cytometry as described (Shapiro, 2000).
(§1) As a control, stable transfection of ZR-75-1 cells with the empty reterovirus had no effect on MUC1 expression. […] By contrast, CDDP treatment of ZR-75-1/MUC1siRNA cells was associated with a clear loss of ΔΨm. In concert with these findings, cytochrome C release, as measured by immunoblot, was attenuated in CDDP-treated ZR-75-1/vector cells, as compared to ZR-75-1/MUC1siRNA cells. […] Treatment of ZR-75-1/vector cells with CDDP was associated with the induction of approximately 25% apoptosis.

Series [2] has as its system HCT116 cells. As to the kind of experiment: Apoptosis (sub-G1 DNA, TUNEL) in HCT116 transfectants. The series is classed as cell-based, human. The conditions noted are these: FIG. 15. On the procedure: Methods. Apoptotic cells were quantified by analysis of sub-G1 DNA and TUNEL staining. To assess sub-G1 DNA content, cells were harvested, washed with PBS, fixed with 80% ethanol, and incubated in PBS containing 20 ng/ml RNase (Roche) for 60 min at 37° C. Cells were then stained with […] propidium iodide (Sigma) for 30 min at room temperature in the dark. DNA content was analyzed by flow cytometry (EPICS XL-MCL, Coulter Corp.). Apoptotic cells with DNA fragmentation were detected by staining with the In Situ cell death detection kit (TUNEL; Roche Applied Science) and visualized by confocal microscopy (ZEISS LSM510). After staining, cells were analyzed by flow cytometry. Other experimental procedures and methods were as described in Example 15.
Results. To determine if MUC1 affects the induction of apoptosis by CDDP, cells were analyzed for sub-G1 DNA content. […] Stimulation of cell surface death receptors with TNF-α or the TNF-related apoptosis inducing factor TRAIL is associated with activation of the extrinsic apoptotic pathway. To determine if MUC1 affects death receptor-induced apoptosis, HCT116 cells were treated with TNF-α.

Series [3] deals with intrinsic apoptotic pathway. As to the kind of experiment: Release of mitochondrial factors and caspase-3 activation in HCT116 transfectants. The series is classed as cell-based, human. On the procedure: Methods. Experimental procedures and methods were as described in Example 15.
(§2) Results. Treatment of cells with DNA-damaging agents is associated with release of mitochondrial cytochrome c and activation of the intrinsic apoptotic pathway. To determine if mitochondrial localization of the MUC1 C-ter affects cytochrome c release, the HCT116 transfectants were treated with cisplatin (CDDP). […] Release of cytochrome c in the response to genotoxic stress is associated with activation of caspase-3 and cleavage of PKCδ (Emoto et al., 1995). To assess the effects of MUC1 on caspase-3 activation, CDDP-treated cells were analyzed for cleavage of pro-caspase-3. […] Smac/DIABLO is a mitochondrial protein that induces caspase-dependent cell death by interacting with inhibitor of apoptosis proteins (IAPs) and blocking their caspase inhibitory activity (Du et al., 2000; Verhagen et al., 2000). To determine if MUC1 attenuates release of Smac/DIABLO, HCT116/vector, HCT116/MUC1 and HCT116/MUC(Y46F) cells were treated with CDDP for 24, 48 and 72 h, and cytosolic lysates were subjected to immunoblot analysis. […] CDDP treatment of HCT116/vector and HCT116/MUC1(Y46F) cells for 72 h was associated with>90% cell death and decreases in the β-actin signals used as a control for loading. By contrast, treatment of HCT116/MUC1 cells with CDDP for 72 h was associated with cessation of cell growth and<30% cell death. These findings indicate that mitochondrial localization of MUC1 C-ter attenuates DNA damage-induced activation of the intrinsic apoptotic pathway.

The subject of the next series is MUC1. Nature of the series: MUC1 induction by oxidative and genotoxic stress (immunoblot). The conditions noted are these: available evidence; cells not given. As for the experimental part:
To determine whether MUC1 is induced in response to oxidative stress, MCF-7 cells were treated with hydrogen peroxide. Cell lysates were analyzed by immunoblotting with anti-DF3/MUC1 antibody. Lysates were prepared by suspending MCF-7 cells in lysis buffer (50 mM Tris, pH 7.6, 150 mM NaCl, 1 mM PMSF, 3 mM NaF, 1 mM sodium vandate, 1 mM DTT with protease inhibitors and either 1% NP-40 or 1% Brij-96) for 30 min. on ice. Lysates were cleared by centifugation and equal amounts of proteins were resolved by SDS-PAGE. Proteins were then transferred to nitrocellulose filters, blocked by incubation in 5% non-fat dry milk in PBS with 0.05% Tween-20 and probed with anti-MUC1 antibody (Pandey et al., 1995). Anti-actin was used as a control.
Similar studies were performed with genotoxic agents.

The test system of a further series is cytochrome c release. Nature of the series: Cytochrome c release (immunoblot) in ZR-75-1 cells. It is filed as cell-based, human. The conditions noted are these: ZR-75-1/vector cells compared to ZR-75-1/MUC1siRNA cells. As for the experimental part:
Immunoblot analysis: Lysates were prepared from cells as described (Li et al., 2001]. Equal amounts of protein were separated by SDS-PAGE and transferred with anti-cytochrome c (BD PharMingen, San Diego, Calif.). The immunocomplexes were detected with horseradish peroxidase-conjugated secondary antibodies and enhanced chemiluminescence (ECL, Amersham Biosciences, Piscataway, N.J.). Intensity of the signals was determined by densiometric scanning.
as §1

In a further series the test system is ZR-75-1 tumors. Nature of the series: ZR-75-1 tumor growth in nude mice. The series is classed as in vivo. Conditions: 7 mg/Kg CDDP intraperitoneal, FIG. 12. On the procedure:
FIG. 12: Summary of data showing that MUC1 confers resistance to CDDP in vivo. ZR-75-1/vector cells (∘, ●) or ZR-75-1/MUC1siRNA (¤, ▪) cells (1×10^7) were injected into nude mice that had been pretreated with β-estradiol. The mice were treated as indicated (arrows) with intraperitoneal injections of PBS (¤, ∘) or 7 mg/Kg CDDP (●, ▪). The results are expressed as the tumor volume (mean±S.D>of 4-8 mice per group.
To determine if knocking-down MUC1 affects chemosensitivity in vivo, mice were injected with ZR-75-1 cells stably expressing the empty viral vector or MUCsiRNA.

In series [4] the test system is ZR-75-1 breast carcinoma cells. Nature of the series: Apoptosis assay (sub-G1 DNA) in ZR-75-1 cells. The series is classed as cell-based, human. On the procedure: Apoptosis assay: Apoptotic cells were quantified by analysis of sub-G1 DNA. Cells were harvested, washed with PBS, fixed with 80% ethanol, and incubated in PBS containing 20 ng/ml RNase (Roche) for 60 min at 37° C. Cells were stained with 40 μg/ml propidium iodide (Sigma) for 30 min at room temperature in the dark. DNA content was analyzed by flow cytometry (EPICS XL-MCL, Coulter Corp.).
as §1

The test system of series [5] is HCT116 cells. As to the kind of experiment: Cell death of HCT116 transfectants. It is filed as cell-based, human. Conditions: 72 h. On the procedure: as §2, with “These findings indicate that mitochondrial localization of MUC1 C-ter attenuates DNA damage-induced activation of the intrinsic apoptotic pathway.” left out
Series [6] has as its system MUC1 C-ter. As to the kind of experiment: Expression of MUC1 C-ter with CHX. The series is classed as cell-based, human.
Series [7] concerns MUC1 C-ter. Nature of the series: Mitochondrial localization of MUC1 C-ter (immunoblot of mitochondrial fractions). It is filed as cell-based, human. Conditions: HCT116/MUC1 or HCT116/MUC1(Y46F) cells; EGF 10 ng/ml. On the procedure:
Cell culture. Human HCT116 colon carcinoma cells (ATCC, Manassas, Va.) were cultured in Dulbecco's modified Eagle's medium/F12 with 10% heat-inactivated fetal bovine serum, 100 units/ml penicillin, […] streptomycin and 2 mM L-glutamine.
Cell transfections. HCT116 cells were transfected with pIRES-puro2, pIRESpuro2-MUC1 or pIRES-puro2-MUC1(Y46F) as described (Li et al., 2001a). SW480 cells were transfected with pIRES-puro2 or pIRES-puro2-MUC1. Stable transfectants were selected in the presence of 0.4 mg/ml puromycin (Calbiochem-Novabiochem, San Diego, Calif.). Two independent transfections were performed for each vector.
Immunoblot analysis. Lysates were prepared from subconfluent cells as described (Li et al., 2001a). Equal amounts of protein were separated by SDS-PAGE and transferred to nitrocellulose membranes. […] The immunocomplexes were detected with horseradish peroxidase-conjugated secondary antibodies and enhanced chemiluminescence (ECL, Amersham Biosciences, Piscataway, N.J.). Intensity of the signals was determined by densitometric scanning. […]
To extend these findings, MUC1 C-ter was expressed with a GFP tag at the N-terminus and assessed mitochondrial localization. […]

Bounds are passed on as bounds.

Take `[NH2][Pt]([NH2])([Cl])[Cl]` [CDDP, cisplatin]: the results for the “mitochondrial transmembrane potential (ΔΨm)” value in [1] (ZR-75-1/MUC1siRNA cells) and in [1] (ZR-75-1/vector cells) were “clear loss” and “little if any decrease”, respectively. For the same molecule, the “attenuation of CDDP-induced apoptosis” value in the series with HCT116 cells [2] (HCT116/MUC1(Y46F) cells) was “not”. In addition, the CDDP-induced apoptosis entry in the series on HCT116 cells [2] (HCT116/MUC1 cells) was “attenuated”. The “apoptosis (sub-G1 DNA)” value with HCT116 cells [2] (HCT116/vector cells, 100 μM CDDP for 24 h) was “approximately 40%”. Moreover, the “release of Smac/DIABLO” value in [3] (24, 48 and 72 h, HCT116/MUC1 compared to HCT116/vector and HCT116/MUC1(Y46F) cells) is reported as “attenuated”. In addition, the “CDDP-induced cytochrome c release” value in series [3] (HCT116/MUC1(Y46F) cells) was “ineffective in blocking”. In addition, the “release of cytochrome c” value in series [3] (HCT116/MUC1 cells) is reported as “significantly attenuated”. Also, the “caspase-3-mediated cleavage of PKCδ” value in series [3] (HCT116/MUC1 compared to HCT116/vector and HCT116/MUC1(Y46F) cells) is listed as “attenuated”. Moreover, the “CDDP-induced activation of caspase-3” value in series [3] (HCT116/MUC1 compared to HCT116/vector cells) is recorded as “attenuates”. Further, the “release of apoptosis-inducing factor (AIF)” value in series [3] (HCT116/MUC1 compared to vector or MUC1(Y46F) cells) was “attenuated release”. In addition, the cytosolic cytochrome c result in [3] (HCT116/vector cells) is “increased levels”. Moreover, in the series with MUC1, the “MUC1 induction by diverse cytotoxic agents” value is listed as “induced”. Also, the “cytochrome C release (immunoblot)” value in the series on cytochrome c release was “attenuated”. The “sensitivity of tumors to treatment” value in the series on ZR-75-1 tumors (ZR-75-1/MUC1siRNA tumors) is listed as “considerably more sensitive”. Moreover, in the series on ZR-75-1 tumors (ZR-75-1/vector tumors), the tumor growth entry is given as “partial slowing”. The apoptosis entry in series [4] (ZR-75-1/MUC1siRNA cells) is reported as “over 60%”; in series [4] (ZR-75-1/vector cells), “approximately 25%”. Further, the cell death is on record as below 30% in the series with HCT116 cells [5] (HCT116/MUC1 cells); above 90% with HCT116 cells [5] (HCT116/vector and HCT116/MUC1(Y46F) cells).

As to `C[C@@H]1C[C@@H]([C@H](O)CC2CC(=O)NC(=O)C2)C(=O)[C@@H](C)C1` [CHX, cycloheximide], in the series on MUC1 C-ter [6], the “expression of MUC1 C-ter” value is “no apparent effect”.

Consider “EGF: EGF (10 ng/ml; Calbiochem-Novabiochem)”, for which the “mitochondrial targeting of MUC1 C-ter” value with MUC1 C-ter [7] is on record as “little effect”.
